The source of these data is patent US11396517B1, “Exo-aza spiro inhibitors of menin-MLL interaction” (Janssen Pharmaceutica NV, priority 2017, dated 2022).

For test [1], the system named is MV-4-11. Kind of test: Proliferation assay A (spheroid assay) MV-4-11. Type of test: cell-based, human. The settings on record: MV-4-11 cells, 8 d, AUC of confluence against time, absolute IC50, read-out: (3a) Spheroid assay MV-4-11 (IC50(μM)) Assay A. The method, then: (§1) 3a) Proliferation Assay A
(§2) The anti-proliferative effect of menin/MLL protein/protein interaction inhibitor test compounds was assessed in human leukemia cell lines. The cell lines MV-4-11 and MOLM14 harbor MILL translocations and express the MILL fusion proteins MLL-AF4 and MLL-AF9, respectively, as well as the wildtype protein from the second allele. […] K562 was used as a control cell line containing two MLL wildtype alleles in order to exclude compounds that display general cytotoxic effects.
(§3) MV-4-11 and MOLM14 were cultured in RPMI-1640 (Sigma Aldrich) supplemented with 10% fetal bovine serum (HyClone), 2 mM L-glutamine (Sigma Aldrich) and 50 μg/ml gentamycin (Gibco). K562 were propagated in RPMI-1640 (Sigma Aldrich) supplemented with 20% fetal bovine serum (HyClone), 2 mM L-glutamine (Sigma Aldrich) and 50 μg/ml gentamycin (Gibco).
(§4) In order to assess the anti-proliferative effects, 1,500 MV-4-11, 300 MOLM14 or 750 K562 cells were seeded in 200 μl media per well in 96-well round bottom, ultra-low attachment plates (Costar, catalogue number 7007). Cell seeding numbers were chosen based on growth curves to ensure linear growth throughout the experiment. Test compounds were added at different concentrations and the DMSO content was normalized to 0.3%. Cells were incubated for 8 d at 37° C. and 5% CO2. Spheroid like growth was monitored in real-time by live-cell imaging (IncuCyteZOOM, Essenbio, 4× objective) acquiring one image every four hours for 8 d. Confluence (%) as a measure of spheroid size was determined using an integrated analysis tool.
(§5) In order to determine the cumulative effect of the test compounds over time, the area under the curve (AUC) in a plot of confluence against time was calculated. Confluence at the beginning of the experiment (t=0) was used as baseline for the AUC calculation.
(§6) Absolute IC50 values were calculated according to the following procedure: % Control=(AUC sample/AUC control)*100
(§7) AUC control mean AUC of control values (cells without compound/DMSO as vehicle control)
(§8) A non-linear curve fit was applied using the least squares (ordinary) fit method to the plot of % control versus compound concentration. Based on this, the absolute IC50 value (half maximal inhibitory concentration of the test compound causing an anti-proliferative effect of 50% relative to the vehicle control) was calculated.

For a further test, the target named is T1, menin (Homo sapiens, UniProt O00255, T541A).
T1 construct: Menin (a.a. 1-610-6×his tag)
T1 sequence (O00255 with tags, fused parts or gaps T541A): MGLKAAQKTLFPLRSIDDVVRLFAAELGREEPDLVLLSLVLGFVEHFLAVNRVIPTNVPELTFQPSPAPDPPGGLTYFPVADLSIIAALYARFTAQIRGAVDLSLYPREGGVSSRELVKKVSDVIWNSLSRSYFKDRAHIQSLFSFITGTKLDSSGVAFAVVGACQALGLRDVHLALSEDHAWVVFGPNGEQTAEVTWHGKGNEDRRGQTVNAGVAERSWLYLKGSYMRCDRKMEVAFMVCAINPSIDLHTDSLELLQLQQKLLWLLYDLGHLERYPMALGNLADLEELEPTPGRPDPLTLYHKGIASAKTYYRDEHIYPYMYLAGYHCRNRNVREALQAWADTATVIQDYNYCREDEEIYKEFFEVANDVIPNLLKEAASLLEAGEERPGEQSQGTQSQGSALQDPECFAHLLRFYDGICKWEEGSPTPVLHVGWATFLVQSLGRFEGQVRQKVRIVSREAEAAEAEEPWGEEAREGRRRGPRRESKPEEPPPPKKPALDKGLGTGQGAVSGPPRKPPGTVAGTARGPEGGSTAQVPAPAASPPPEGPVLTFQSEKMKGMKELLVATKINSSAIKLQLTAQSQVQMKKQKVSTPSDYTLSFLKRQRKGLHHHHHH
Description: Menin/MLL homogenous time-resolved fluorescence (HTRF) assay. Type of test: binding. The settings on record: location 2; read-out: (2) location 2 Menin HTRF assay (IC50 (nM)). The method, boiled down: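 Displacement of 75 nM FITC-MBM1 from terbium-cryptate-labeled His-tagged menin 1-610 ([…]) was read as the 520/490 nm HTRF ratio. Compound (11-point, 3-fold series) got 5 min with menin before peptide, then 15 min at ambient; 0.5% DMSO, Tris pH 7.5.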
(TR-FRET usually uses a lanthanide donor and a delayed reading to cut background.)

In test [2] the test system is MOLM14. Description: Proliferation assay A (spheroid assay) MOLM14. The test is classed as cell-based, human. The note with it: Homo sapiens, MOLM-14, 192 h, MOLM14 cells, 8 d, AUC of confluence against time, absolute IC50; read-out: (3a) Spheroid assay MOLM14 (IC50(μM)) Assay A. The method, then:
as §1, §2, §3, §4, §5, §6, §7, §8

Test [3] deals with MV-4-11. Kind of test: Proliferation assay B (spheroid assay) MV-4-11. The test is classed as cell-based, human. The note with it: MV-4-11 cells, confluence at day 8, absolute IC50, read-out: (3b) Spheroid assay MV-4--11 (IC50(μM)) Assay B. As to the method:
3b) Proliferation Assay B
as §2, §3
as §4, with “MOLM14 cells” for “MOLM14”, “measured” for “monitored”, “images at day 8.” for “one image every four hours for 8 d.”
In order to determine the effect of the test compounds over time, the confluence in each well as a measure of spheroid size, was calculated. Confluence […] at the beginning of the experiment (t=0) was used as baseline for the calculation.
Absolute IC50 values were calculated as percent change in confluence as follows:
LC=Low Control: cells treated with 1 μM of the cytotoxic agent staurosporin
HC=High Control: Mean confluence (%) (DMSO treated cells) % Effect=100−(100*(Sample−LC)/(HC−LC))
To determine the IC50 a curve is fitted to the plot of % Effect vs Log 10 compound concentration using a sigmoidal fit with a variable slope and fixing the maximum to 100% and the minimum to 0%.

The test system of test [4] is MOLM14. Description: Proliferation assay B (spheroid assay) MOLM14. The note with it: MOLM14 cells, confluence at day 8, absolute IC50, read-out: (3b) Spheroid assay MOLM14 (IC50(μM)) Assay B. Type of test: cell-based, human. The method, boiled down: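 IC50 derived from % effect on day-8 imaged confluence, scaled between DMSO-treated cells (high) and 1 μM staurosporine (low), using a variable-slope fit constrained 0-100%. Cells seeded as spheroids in ultra-low-attachment plates and exposed to compound for 8 days, 0.3% DMSO.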

Molecules are shown by their SMILES. Where only a bound is given, the exact number is not on record here.

As usually defined, the IC50 is the concentration that gives 50% inhibition. Regarding `N#CCc1ccc(NC2CC3(CCN(c4ncnc5sc(CC(F)(F)F)cc45)C3)C2)cc1F` (mixture of isomers) [Compound 168], the IC50 with MV-4-11 [1] (Homo sapiens, MV4-11, 192 h) came out at 1.65 µM; on menin, 20.8 nM; in the test with MOLM14 [2], 2.52 µM.
For `FC(F)(F)Cc1cc2c(N3CCC4(CC(Nc5ccc6cc(C(F)(F)F)[nH]c6c5)C4)C3)ncnc2s1` (mixture of isomers) [Compound 314], in that order: 3.83 µM, 27.1 nM and over 3.75 µM.
For `O=c1[nH]c2ccc(NC3CC4(CCN(c5ncnc6sc(CC(F)(F)F)cc56)C4)C3)cc2o1` (mixture of isomers) [Compound 322], the IC50 in the test with MV-4-11 [3] (Homo sapiens, MV4-11, 192 h) was over 3.75 µM; in the test with MOLM14 [4] (Homo sapiens, MOLM-14, 192 h) it was over 3.75 µM; in the test with MV-4-11 [1] (Homo sapiens, MV4-11, 192 h), over 3.75 µM; at menin it was 51.4 nM.
With `CNc1nc(N2CCC3(CC(Nc4ccc(CC#N)cc4)C3)C2)c2cc(CC(F)(F)F)sc2n1` (mixture of isomers) [Compound 390], the IC50 with MV-4-11 [1] (Homo sapiens, MV4-11, 192 h) was 2.84 µM; on menin, 14.6 nM; in the test on MOLM14 [2] it was over 3.75 µM.
Turning to `N#CCc1ccc(NC2CCC3(C2)CN(c2nc(N)nc4sc(CC(F)(F)F)cc24)C3)cc1` (racemic) [Compound 387], the half-maximal inhibitory concentration (IC50) in the test with MV-4-11 [3] (Homo sapiens, MV4-11, 192 h) was over 3.75 µM; in the test with MOLM14 [4] (Homo sapiens, MOLM-14, 192 h), over 3.75 µM; in the test on MV-4-11 [1] (Homo sapiens, MV4-11, 192 h), over 3.75 µM; on menin, 94.2 nM.
As to `CNC(=O)c1ccc(NC2CC3(CCN(c4ncnc5sc(CC(F)(F)F)cc45)C3)C2)cc1` (single isomer, unassigned) [Compound 94], the IC50 was 0.06 µM in the test with MV-4-11 [3] (Homo sapiens, MV4-11, 192 h); 0.44 µM in the test with MOLM14 [4] (Homo sapiens, MOLM-14, 192 h); 0.04 µM in the test on MV-4-11 [1]; 3.6 nM at menin.
Turning to `NC(=O)Cn1c(=O)[nH]c2cc(CNC3CCC4(C3)CN(c3ncnc5sc(CC(F)(F)F)cc35)C4)ccc21` (stereo not drawn) [Compound 53, 2-(2-oxo-5-(((2-(6-(2,2,2-trifluoroethyl)thieno[2,3-d]-pyrimidin-4-yl)-2-azaspiro[3.4]octan-6-yl)amino)methyl)-2,3-dihydro-1H-benzo[d]-imidazol-1-yl)acetamide], the IC50 was over 3.75 µM in the test on MV-4-11 [3] (Homo sapiens, MV4-11, 192 h); over 3.75 µM in the test with MOLM14 [4] (Homo sapiens, MOLM-14, 192 h); 8.7 nM at menin.
For `CNC(=O)c1ccc(NC2CC3(CCN(c4ncnc5sc(CC(F)(F)F)cc45)C3)C2)nc1` (stereo not drawn) [Compound 70], the IC50 is 0.3 µM in the test on MV-4-11 [3] (Homo sapiens, MV4-11, 192 h); 1.08 µM in the test on MOLM14 [4] (Homo sapiens, MOLM-14, 192 h); 2.7 nM at menin.
As for `CN1CCC(Oc2cc(NC3CC4(CCN(c5ncnc6sc(CC(F)(F)F)cc56)C4)C3)ccc2C#N)CC1` (stereo not drawn) [Compound 81], the IC50 with MV-4-11 [3] (Homo sapiens, MV4-11, 192 h) came to 0.43 µM; in the test with MOLM14 [4] (Homo sapiens, MOLM-14, 192 h) it was 0.65 µM; on menin, 6.8 nM.
Take `CN1CCC(Nc2cc(NC3CC4(CCN(c5ncnc6sc(CC(F)(F)F)cc56)C4)C3)ccc2C#N)CC1` (stereo not drawn) [Compound 82]: the IC50 in the test on MV-4-11 [3] (Homo sapiens, MV4-11, 192 h) is 1.14 µM; in the test with MOLM14 [4] (Homo sapiens, MOLM-14, 192 h) it was 0.93 µM; on menin, 73.6 nM.
Taken in the same sequence, the figures for `CNC(=O)c1ccc(NC2CCC3(C2)CN(c2ncnc4sc(CC(F)(F)F)cc24)C3)cc1` (stereo not drawn) [Compound 96] were 1.02 µM, 1.09 µM and 43.4 nM.
For `N#CCc1ccc(NC2CCC3(CCN(c4ncnc5sc(CC(F)(F)F)cc45)C3)C2)cc1F` (stereo not drawn) [Compound 129], in that order: 3.81 µM, over 3.75 µM and 34.3 nM.
Taken in the same sequence, the figures for `CC(C)(C#N)c1ccc(NC2CCC3(CCN(c4ncnc5sc(CC(F)(F)F)cc45)C3)C2)cc1` (stereo not drawn) [Compound 130] were over 3.75 µM, over 3.75 µM and 67.1 nM.
Take `N#CC1(c2ccc(NC3CCC4(CCN(c5ncnc6sc(CC(F)(F)F)cc56)C4)C3)cc2)CC1` (stereo not drawn) [Compound 131]: the IC50 is 3.3 µM with MV-4-11 [3] (Homo sapiens, MV4-11, 192 h); over 3.75 µM in the test on MOLM14 [4] (Homo sapiens, MOLM-14, 192 h); 49.1 nM on menin.
Taken in the same sequence, the figures for `CNC(=O)c1ccc(NC2CCC3(CCN(c4ncnc5sc(CC(F)(F)F)cc45)C3)C2)cc1` (stereo not drawn) [Compound 133] were 1.41 µM, over 3.75 µM and 4.1 nM.
As to `FC(F)(F)Cc1cc2c(N3CCC4(CC(Nc5ccccn5)C4)C3)ncnc2s1` (stereo not drawn) [Compound 151], the IC50 in the test with MV-4-11 [3] (Homo sapiens, MV4-11, 192 h) is 2.03 µM; in the test on MOLM14 [4] (Homo sapiens, MOLM-14, 192 h), 2.48 µM; on menin, 31 nM.
With `FC(F)(F)Cc1cc2c(N3CCC4(CC(Nc5ccncc5)C4)C3)ncnc2s1` (stereo not drawn) [Compound 154], the IC50 in the test with MV-4-11 [3] stood at 0.67 µM; with MOLM14 [4], 2.35 µM; at menin it was 13 nM.
On to `FC(F)(F)Cc1cc2c(N3CC4(CCC(NC5(c6ccccc6)CC5)C4)C3)ncnc2s1` (stereo not drawn) [Compound 282], for which the IC50 was over 3.75 µM in the test with MV-4-11 [3] (Homo sapiens, MV4-11, 192 h); over 3.75 µM in the test with MOLM14 [4] (Homo sapiens, MOLM-14, 192 h); 92.8 nM on menin.
`Cc1cc2ccc(NC3CCC4(C3)CN(c3ncnc5sc(CC(F)(F)F)cc35)C4)cc2[nH]1` (stereo not drawn) [Compound 289]: the IC50 is over 3.75 µM in the test with MV-4-11 [3] (Homo sapiens, MV4-11, 192 h); over 3.75 µM with MOLM14 [4] (Homo sapiens, MOLM-14, 192 h); 42.7 nM at menin.
For `O=c1[nH]c2ccc(NC3CCC4(C3)CN(c3ncnc5sc(CC(F)(F)F)cc35)C4)cc2o1` (stereo not drawn) [Compound 295], the IC50 is over 3.75 µM in the test with MV-4-11 [3] (Homo sapiens, MV4-11, 192 h); over 3.75 µM in the test with MOLM14 [4] (Homo sapiens, MOLM-14, 192 h); 97.7 nM at menin.
Turning to `O=c1[nH]c2ccc(NC3CCC4(C3)CN(c3ncnc5sc(CC(F)(F)F)cc35)C4)cc2[nH]1` (stereo not drawn) [Compound 298], the IC50 with MV-4-11 [3] (Homo sapiens, MV4-11, 192 h) was over 3.75 µM; in the test on MOLM14 [4] (Homo sapiens, MOLM-14, 192 h), over 3.75 µM; on menin, 54.3 nM.
